For orientation: Solubility means how much of the substance goes into solution per volume. Usually chromatographic logD stands for a lipophilicity value derived from retention on a column. Read a low chromatographic logD as lower lipophilicity.

In series [1] the target is T1, full-length beta-Catenin (Uniprot ID P35222) (Homo sapiens, UniProt P35222).
T1 construct: 10 nM full-length beta-Catenin (Uniprot ID P35222)
T1 sequence (P35222 1-781): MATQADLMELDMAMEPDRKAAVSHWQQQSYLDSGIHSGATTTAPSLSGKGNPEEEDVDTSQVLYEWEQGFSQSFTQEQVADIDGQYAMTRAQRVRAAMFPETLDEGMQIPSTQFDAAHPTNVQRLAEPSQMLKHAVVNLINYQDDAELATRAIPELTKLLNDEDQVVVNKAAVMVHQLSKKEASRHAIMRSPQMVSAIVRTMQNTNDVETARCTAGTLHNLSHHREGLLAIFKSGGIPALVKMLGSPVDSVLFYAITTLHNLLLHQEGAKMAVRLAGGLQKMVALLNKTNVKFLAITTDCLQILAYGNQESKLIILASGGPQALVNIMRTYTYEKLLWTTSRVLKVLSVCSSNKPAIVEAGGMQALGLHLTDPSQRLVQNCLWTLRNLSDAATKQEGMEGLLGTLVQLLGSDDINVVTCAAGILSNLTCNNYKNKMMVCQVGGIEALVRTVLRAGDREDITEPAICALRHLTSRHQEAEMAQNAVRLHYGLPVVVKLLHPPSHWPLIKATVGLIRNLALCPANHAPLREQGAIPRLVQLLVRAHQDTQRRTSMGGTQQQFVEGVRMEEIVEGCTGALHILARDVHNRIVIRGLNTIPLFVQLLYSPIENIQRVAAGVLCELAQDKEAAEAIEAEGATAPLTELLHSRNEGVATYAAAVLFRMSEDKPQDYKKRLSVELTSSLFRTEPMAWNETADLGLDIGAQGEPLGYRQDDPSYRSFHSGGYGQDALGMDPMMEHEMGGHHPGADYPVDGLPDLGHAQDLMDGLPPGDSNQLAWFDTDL
The series is described as follows: Fluorescence polarization IC50 (beta-catenin / 5FAM-TCF4 10-53 competition). The class given is binding. For orientation: Polarisation of emitted light reports the rotation of a fluorescent probe.

A further series can be described thus: CHI Log D procedure. To be noted: for CHI Log D: pH 7.4; for chromatographic logD: pH 7.4, CHI Log D. The class given is physicochemical.
A short description of another series: Solubility in PBS. Type of series: physicochemical. An outline of the steps:
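Steps: ultracentrifuge the peptide PBS solution, inject the supernatant on HPLC, inject a 50 μM peptide DMSO solution as reference, then calculate solubility as area ratio (PBS/DMSO) × 50 uM.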

[2] abbreviates: fluorescence polarization, read-out: beta-Catenin FP IC50.

In brackets after ≈: the same amount, converted by molar mass. Where two headings read alike, the source gives them in different places.

As for `CC[C@H](C)[C@@H]1NC(=O)[C@H](CC(=O)O)NC(=O)[C@]2(CC=CCCCC3(CCCC=CCCCCCC[C@@](C)(C(=O)N[C@@H](Cc4ccccc4)C(=O)N[C@@H](Cc4csc5ccccc45)C(=O)N[C@@H](CCC(N)=O)C(N)=O)NC(=O)[C@H](CCC(N)=O)NC(=O)[C@H](Cc4ccccc4)NC(=O)[C@H](C)NC(=O)[C@H](CO)NC(=O)[C@H](CCC(=O)O)NC(=O)[C@H](CC(=O)O)NC3=O)NC1=O)CCCN2C(C)=O` (stereo partly drawn) [I-652, Ac-PL3-Asp-Ile-B5-Asp-Glu-Ser-Ala-Phe-Gln-S8-Phe-BztA-Gln-NH2], the IC50 in series [1] (setting [2]) and in series [1] (read-out: FP EC50) was 0.072 µM throughout. Also, the “CHI Log D” value in “CHI Log D procedure” worked out at 2.233. The “Solubility” value in the series “Solubility in PBS” came to 48 µM (≈ 91.2 µg/mL).
Regarding `CC[C@H](C)[C@@H]1NC(=O)[C@H](CC(=O)O)NC(=O)[C@]2(CC=CCCCC3(CCCC=CCCCCCC[C@@](C)(C(=O)N[C@@H](Cc4ccccc4)C(=O)N[C@@H](Cc4csc5ccccc45)C(=O)N[C@@H](CCC(N)=O)C(N)=O)NC(=O)[C@H](CCC(N)=O)NC(=O)[C@H](Cc4ccccc4)NC(=O)[C@H](C)NC(=O)[C@H](CCC(N)=O)NC(=O)[C@H](CCC(=O)O)NC(=O)[C@H](CC(=O)O)NC3=O)NC1=O)CCCN2C(C)=O` (stereo partly drawn) [I-653, Ac-PL3-Asp-Ile-B5-Asp-Glu-Gln-Ala-Phe-Gln-S8-Phe-BztA-Gln-NH2], the IC50 in series [1] (setting [2]) and in series [1] (read-out: FP EC50) was 0.108 µM in each case. Moreover, the “CHI Log D” value in “CHI Log D procedure” is on record as 2.07. Besides, in the series “Solubility in PBS”, the “Solubility” value came to 39 µM (≈ 75.7 µg/mL).
For `CC[C@H](C)[C@@H]1NC(=O)[C@H](CC(=O)O)NC(=O)[C@]2(CC=CCCCC3(CCCC=CCCCCCC[C@@](C)(C(=O)N[C@@H](Cc4ccccc4)C(=O)N[C@@H](Cc4csc5ccccc45)C(=O)N[C@@H](CCC(N)=O)C(N)=O)NC(=O)[C@H](CCC(N)=O)NC(=O)[C@H](Cc4ccccc4)NC(=O)[C@H](C)NC(=O)[C@H](Cc4c[nH]c5ccccc45)NC(=O)[C@H](CCC(=O)O)NC(=O)[C@H](CC(=O)O)NC3=O)NC1=O)CCCN2C(C)=O` (stereo partly drawn) [I-655, Ac-PL3-Asp-Ile-B5-Asp-Glu-Trp-Ala-Phe-Gln-S8-Phe-BztA-Gln-NH2], in series [1] (setting [2]), the IC50 turned out to be 0.183 µM. Also, in “CHI Log D procedure”, the chromatographic logD worked out at 2.69. Besides, the concentration in solution in “Solubility in PBS” (Solubility (uM)) (Solubility) was 46 µM (≈ 91.9 µg/mL).
As for `CCCC[C@@H]1NC(=O)[C@H](CCC(=O)O)NC(=O)[C@H](CC(=O)O)NC(=O)C2(CCCC=CCCCCCC[C@@](C)(C(=O)N[C@@H](Cc3ccccc3)C(=O)N[C@@H](Cc3csc4ccccc34)C(=O)N[C@@H](CCC(N)=O)C(N)=O)NC(=O)[C@H](CCC(N)=O)NC(=O)[C@H](Cc3ccccc3)NC(=O)[C@H](C)NC1=O)CCCC=CC[C@]1(CCCN1C(C)=O)C(=O)N[C@@H](CC(=O)O)C(=O)N[C@@H]([C@@H](C)CC)C(=O)N2` (stereo partly drawn) [I-656, Ac-PL3-Asp-Ile-B5-Asp-Glu-nLeu-Ala-Phe-Gln-S8-Phe-BztA-Gln-NH2], the IC50 in series [1] (setting [2]) and in series [1] (read-out: FP EC50) was 0.073 µM throughout. For the same compound, the “CHI Log D” value in the series “CHI Log D procedure” is 2.736. For the same compound, the “Solubility” value in the series “Solubility in PBS” was found to be 40 µM (≈ 77 µg/mL).
On to `CCCC[C@@H]1NC(=O)[C@H](CCC(=O)O)NC(=O)[C@H](CC(=O)O)NC(=O)C2(CCCC=CCCCCCC[C@@](C)(C(=O)N[C@@H](Cc3ccccc3)C(=O)N[C@@H](Cc3csc4ccccc34)C(=O)N[C@@H](CCC(N)=O)C(N)=O)NC(=O)[C@H](CCC(N)=O)NC(=O)[C@H](Cc3ccccc3)NC(=O)[C@H](C)NC1=O)CCCC=CC[C@]1(CCCN1C(C)=O)C(=O)N[C@@H](CC(=O)O)C(=O)N[C@@H]([C@@H](C)CC)C(=O)N2` (stereo partly drawn) [I-657, Ac-PL3-Asp-Ile-B5-Asp-Glu-nLeu-Ala-Phe-Gln-S8-Phe-BztA-Gln-NH2], for which the IC50 in series [1] (setting [2]) and in series [1] (read-out: FP EC50) was 0.046 µM throughout. Also, in the series “CHI Log D procedure”, the “CHI Log D” value worked out at 2.767. Further, in the series “Solubility in PBS”, the “Solubility” value worked out at 40 µM (≈ 77 µg/mL).
Regarding `CC[C@H](C)[C@@H]1NC(=O)[C@H](CC(=O)O)NC(=O)[C@]2(CC=CCCCC3(CCCC=CCCCCCC[C@@](C)(C(=O)N[C@@H](Cc4ccccc4)C(=O)N[C@@H](Cc4csc5ccccc45)C(=O)N[C@@H](CCC(N)=O)C(N)=O)NC(=O)[C@H](CCC(N)=O)NC(=O)[C@H](Cc4ccccc4)NC(=O)[C@H](CC(C)C)NC(=O)[C@H](C)NC(=O)[C@H](CCC(=O)O)NC(=O)[C@H](CC(=O)O)NC3=O)NC1=O)CCCN2C(C)=O` (stereo partly drawn) [I-658, Ac-PL3-Asp-Ile-B5-Asp-Glu-Ala-Leu-Phe-Gln-S8-Phe-BztA-Gln-NH2], the IC50 in series [1] (setting [2]) and in series [1] (read-out: FP EC50) was 0.546 µM in each case. Also, the “CHI Log D” value in the series “CHI Log D procedure” was determined as 2.859. Moreover, the “Solubility” value in “Solubility in PBS” was 48 µM (≈ 92.4 µg/mL).
For the compound `CC[C@H](C)[C@@H]1NC(=O)[C@H](CC(=O)O)NC(=O)[C@]2(CC=CCCCC3(CCCC=CCCCCCC[C@@](C)(C(=O)N[C@@H](Cc4ccccc4)C(=O)N[C@@H](Cc4csc5ccccc45)C(=O)N[C@@H](CCC(N)=O)C(N)=O)NC(=O)[C@H](CCC(N)=O)NC(=O)[C@H](Cc4ccccc4)NC(=O)[C@H](CC(C)C)NC(=O)[C@H](C)NC(=O)[C@H](CCC(=O)O)NC(=O)[C@H](CC(=O)O)NC3=O)NC1=O)CCCN2C(C)=O` (stereo partly drawn) [I-659, Ac-PL3-Asp-Ile-B5-Asp-Glu-Ala-Leu-Phe-Gln-S8-Phe-BztA-Gln-NH2], the IC50 in series [1] (setting [2]) and in series [1] (read-out: FP EC50) was 0.43 µM each time. Further, in “CHI Log D procedure”, the “CHI Log D” value worked out at 2.903. Besides, the “Solubility” value in “Solubility in PBS” was found to be 48 µM (≈ 92.4 µg/mL).
As to `CC[C@H](C)[C@@H]1NC(=O)[C@H](CC(=O)O)NC(=O)[C@]2(CC=CCCCC3(CCCC=CCCCCCC[C@@](C)(C(=O)N[C@@H](Cc4ccccc4)C(=O)N[C@@H](Cc4csc5ccccc45)C(=O)N[C@@H](CCC(N)=O)C(N)=O)NC(=O)[C@H](CCC(N)=O)NC(=O)[C@H](Cc4ccccc4)NC(=O)[C@H](Cc4ccccc4)NC(=O)[C@H](C)NC(=O)[C@H](CCC(=O)O)NC(=O)[C@H](CC(=O)O)NC3=O)NC1=O)CCCN2C(C)=O` (stereo partly drawn) [I-660, Ac-PL3-Asp-Ile-B5-Asp-Glu-Ala-Phe-Phe-Gln-S8-Phe-BztA-Gln-NH2], the IC50 in series [1] (setting [2]) came out at 0.544 µM. The compound further came in with a chromatographic logD in the series “CHI Log D procedure” of 2.75. Also, the Solubility in the series “Solubility in PBS” (Solubility (uM)) is 45 µM (≈ 88.2 µg/mL).
Consider `CC[C@H](C)[C@@H]1NC(=O)[C@H](CC(=O)O)NC(=O)[C@]2(CC=CCCCC3(CCCC=CCCCCCC[C@@](C)(C(=O)N[C@@H](Cc4ccccc4)C(=O)N[C@@H](Cc4csc5ccccc45)C(=O)N[C@@H](CCC(N)=O)C(N)=O)NC(=O)[C@H](CCC(N)=O)NC(=O)[C@H](Cc4ccccc4)NC(=O)[C@H](CO)NC(=O)[C@H](C)NC(=O)[C@H](CCC(=O)O)NC(=O)[C@H](CC(=O)O)NC3=O)NC1=O)CCCN2C(C)=O` (stereo partly drawn) [I-661, Ac-PL3-Asp-Ile-B5-Asp-Glu-Ala-Ser-Phe-Gln-S8-Phe-BztA-Gln-NH2], for which the IC50 in series [1] (setting [2]) and in series [1] (read-out: FP EC50) was 0.045 µM each time. Besides, the “CHI Log D” value in the series “CHI Log D procedure” amounted to 2.099. In addition, the “Solubility” value in the series “Solubility in PBS” was 45 µM (≈ 85.5 µg/mL).
For `CC[C@H](C)[C@@H]1NC(=O)[C@H](CC(=O)O)NC(=O)[C@]2(CC=CCCCC3(CCCC=CCCCCCC[C@@](C)(C(=O)N[C@@H](Cc4ccccc4)C(=O)N[C@@H](Cc4csc5ccccc45)C(=O)N[C@@H](CCC(N)=O)C(N)=O)NC(=O)[C@H](CCC(N)=O)NC(=O)[C@H](Cc4ccccc4)NC(=O)[C@H](CCC(N)=O)NC(=O)[C@H](C)NC(=O)[C@H](CCC(=O)O)NC(=O)[C@H](CC(=O)O)NC3=O)NC1=O)CCCN2C(C)=O` (stereo partly drawn) [I-663, Ac-PL3-Asp-Ile-B5-Asp-Glu-Ala-Gln-Phe-Gln-S8-Phe-BztA-Gln-NH2], the IC50 in series [1] (setting [2]) came to 0.043 µM. The chromatographic logD in “CHI Log D procedure” was 1.8. For the same compound, the concentration in solution in “Solubility in PBS” (Solubility (uM)) (Solubility) came to 42 µM (≈ 81.5 µg/mL).

Source of the values: patent US20240116985A1, “STAPLED PEPTIDES AND METHODS THEREOF” (priority 2020, published 2024).
